5 compounds from ChEMBL document CHEMBL1201862, “PubChem BioAssay data set” (2004) can be followed below.

Structures are written as SMILES.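 How tested: cells in 96-well plates exposed to compound for 48 hours at five concentrations. At the GI50, growth is halved.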 Active and inactive are the calls of the source. Rule as the data show it: active = GI50 up to about 1.1 µM and inactive = higher. Numbered stars: 1 amine (or outer) side, 2 acyl side, 3 side chain; on linkers, the order of the positions; unused ones are H or OH. Bridge positions count the residues as written; N and C are the ends. Square brackets hold non-standard residues; d marks the D form. Peptide text beside a SMILES is read from it. * marks the point of attachment. ξ: configuration not given here. X33 = O=C(C(CCCCNO[*:3])N[*:1])[*:2]; Fmoc = O=C(OCC1c2ccccc2-c2ccccc21)*; ξW = NC(Cc1c[nH]c2ccccc12)C(=O)O; ξP = O=C(O)C1CCCN1

Some test systems named below: ACHN; CAKI-1; HCT-116; HL-60; HOP-62; HOP-92; K562; KM12; LOX IMVI; MOLT-4; Malme-3M; NCI-H522; OVCAR-3; OVCAR-8; PC-3; RPMI-8226; SF-268; SNB-19; UACC-257; UACC-62.
Experiment in all cases: inhibition of tumour cell growth, NCI panel, 48 h

In the case of `O=C(O)C(Cc1ccc(O)c([N+](=O)[O-])c1)N1C(=O)c2ccccc2C1=O` (stereo not given), the GI50 in the test on ACHN was > 100 µM (inactive); in the test with CAKI-1, > 100 µM (inactive); in the test on HCT-116, > 100 µM (inactive); in the test with HL-60, 18.6 µM (inactive); in the test on HOP-62, > 100 µM (inactive); in the test with HOP-92, > 100 µM (inactive). Moreover, the GI50 with K562, in the test on KM12, in the test on LOX IMVI, with MOLT-4, with Malme-3M and in the test on NCI-H522 was > 100 µM (inactive) throughout. Further, the GI50 with OVCAR-3, with OVCAR-8, with PC-3, with RPMI-8226, in the test on SF-268 and in the test on SNB-19 was > 100 µM (inactive) in each case. The GI50 in the test with UACC-257 and in the test with UACC-62 was > 100 µM (inactive) throughout.
As to `O=C(N/N=C/c1ccc([N+](=O)[O-])cc1)Nc1ccc(C(=O)O)cc1`, the GI50 in the test with ACHN is 26.7 µM (inactive); with CAKI-1, 28.2 µM (inactive); with HCT-116, 22.3 µM (inactive); with HL-60 it was 37.2 µM (inactive); in the test on HOP-62, 21.6 µM (inactive); in the test with HOP-92, 16.9 µM (inactive). Further, the GI50 is 13.3 µM (inactive) in the test on K562; 27.7 µM (inactive) in the test on KM12; 31.3 µM (inactive) with LOX IMVI; 22.9 µM (inactive) with MOLT-4; 53 µM (inactive) with Malme-3M; 7.85 µM (inactive) in the test with NCI-H522. In addition, the GI50 is 4.54 µM (inactive) in the test with OVCAR-3; 28.6 µM (inactive) with OVCAR-8; 32.1 µM (inactive) with PC-3; 18.7 µM (inactive) in the test with RPMI-8226; 44 µM (inactive) in the test on SF-268; 38.6 µM (inactive) in the test with SNB-19. The GI50 in the test on UACC-257 was 28.4 µM (inactive); with UACC-62 it was 26.4 µM (inactive).
With `O=[N+]([O-])C(=C(Sc1ccccc1)Sc1ccccc1)C(Cl)=C(Cl)Cl`, the GI50 in the test with ACHN is 0.248 µM (active); with CAKI-1, 0.476 µM (active); in the test on HCT-116, 0.0597 µM (active); in the test on HL-60, 0.141 µM (active); in the test with HOP-62, 1.91 µM (inactive); with HOP-92, 1.29 µM (inactive). Moreover, the GI50 in the test on K562 was 0.0923 µM (active); in the test with KM12, 2.44 µM (inactive); in the test on LOX IMVI, 0.177 µM (active); with MOLT-4, 0.051 µM (active); in the test on Malme-3M it was 0.458 µM (active); in the test on NCI-H522, 0.0776 µM (active). Also, the GI50 with OVCAR-3 was 0.373 µM (active); in the test with OVCAR-8, 0.23 µM (active); in the test on PC-3, 2.26 µM (inactive); in the test on RPMI-8226 it was 0.0292 µM (active); in the test on SF-268, 2 µM (inactive); with SNB-19, 10.6 µM (inactive). In addition, the GI50 in the test on UACC-257 was 0.323 µM (active); in the test on UACC-62, 0.75 µM (active).
Turning to `COc1cc2c3c(n(Cc4ccccc4)c(=O)c2cc1OC)-c1ccccc1C3=O`, the GI50 was > 100 µM (inactive) in the test with ACHN; 92.9 µM (inactive) in the test on CAKI-1; > 100 µM (inactive) with HCT-116; > 100 µM (inactive) in the test with HL-60; > 100 µM (inactive) with HOP-62; > 100 µM (inactive) with HOP-92. Further, the GI50 with K562 was > 100 µM (inactive); in the test on KM12 it was > 100 µM (inactive); in the test with LOX IMVI, > 100 µM (inactive); in the test with MOLT-4 it was 20.5 µM (inactive); in the test on Malme-3M, > 100 µM (inactive); in the test on NCI-H522, > 100 µM (inactive). In addition, the GI50 is > 100 µM (inactive) in the test with OVCAR-3; > 100 µM (inactive) in the test on OVCAR-8; > 100 µM (inactive) in the test on PC-3; > 100 µM (inactive) with RPMI-8226; 82.2 µM (inactive) with SF-268; > 100 µM (inactive) with SNB-19. For the same compound, the GI50 in the test on UACC-257 and with UACC-62 was > 100 µM (inactive) in each case.
Turning to `NC(=O)CNC(=O)C1CCCN1C(=O)C1CCCCNOC(=O)CC[C@@H](NC(=O)OCC2c3ccccc3-c3ccccc32)C(=O)NC(Cc2c[nH]c3ccccc23)C(=O)N1` (stereo not given in full) (Fmoc-[dE][ξW][X33][ξP]G-NH2; ester 1-3), the GI50 in the test on ACHN, with CAKI-1, in the test on HCT-116, in the test with HL-60, in the test with HOP-62 and in the test with HOP-92 was > 100 µM (inactive) throughout. Also, the GI50 with K562, in the test on KM12, with LOX IMVI, in the test on MOLT-4, in the test with Malme-3M and in the test on NCI-H522 was > 100 µM (inactive) in each case. Moreover, the GI50 in the test with OVCAR-3, in the test on OVCAR-8, with PC-3, in the test on RPMI-8226, in the test with SF-268 and with SNB-19 was > 100 µM (inactive) throughout. Further, the GI50 in the test with UACC-257 and in the test on UACC-62 was > 100 µM (inactive) throughout.
